# In patent publication US20100130581A1, “COMPOUNDS AND METHODS FOR THE TREATMENT OF PAIN” (THE UNIVERSITY OF QUEENSLAND, priority 2006, published 2010):
# Where a SMILES comes first, the peptide text is derived from it. [ ]: non-standard residue; d: D form. ξ: configuration not given here. ξAoc(2) = CCCCCCC(N)C(=O)O
# Columns and labels:
# [1] = system: Caco-2 cells; assay: Caco-2 permeability study
# Description: Approximately 1×10^6 cells/mL concentration of cells were seeded onto polycarbonate cell culture inserts (Transwell®; 0.45 μm×6.5 mm diameter). DMEM cell culture media was supplemented with 10% FBS, 1% L-glutamine, 1% nonessential amino acids and 1% 100 U/mL penicillin/streptomycin. The media was changed every other day (0.6 mL in the basolateral chamber and 0.1 mL to the apical chamber) and the monolayers were used between days 21-28. Transepithelial electrical resistance (TEER) of the monolayer was measured using the Millicell-ERS system (Millipore Corporation, Bedford, Mass.). C^14-mannitol permeability was used to monitor the integrity of the Caco-2 monolayers.
# Prior to beginning the experiments, the monolayers were washed with pre-warmed HBSS-Hepes buffer, incubated for 30 min. At the start of the experiment the apical chamber was emptied and 100 μL of either the derivatised endomorphin or derivatised endomorphin analog solution was added. The permeability study was performed in triplicate at 37° C. shaking in a Heridolf Titramax shaking at 400 rpm. […] Permeability coefficients (Papp) were calculated from data generated by LC/MS quantitative analysis of all samples using a gradient HPLC system (Shimadzu LC-10AT system) coupled to a triple quadrupole mass spectrometer (PE Sciex API 3000) operating in SIM mode with positive ion electrospray. The mobile phase was a mixture of solvent A (0.1% formic acid in water) and solvent B (0.1% formic acid in 90% acetonitrile/water). A C18 column, 5 μM, 50×2.0 mm (Phenomex®) was used at a flow rate 0.3 mL/min with a gradient from 100% A to 90% B in 7 minutes, incorporating a splitter (1:10).
# The permeability of the sugars themselves was also examined.
# [2] = In vivo biodistribution of 3H-labelled peptide, oral; set-up: species or system rat; conditions: rats, oral administration
# Description: After 15, 30 and 60 minutes, 5 rats were sacrificed and the brain, liver, blood, kidneys, stomach, spleen, small intestine and large intestine were removed following oral administration. The organs were subsequently homogenised in buffer and a sample removed and placed in tissue solubiliser for 3 days. After this time a small sample was removed and treated with bleach over night to remove any colour from the solution and the resulting sample dissolved in scintillation fluid and the radioactivity measured by liquid scintillation.
# [3] = target: T1, μ-opioid receptor (Homo sapiens, UniProt P35372); assay: Whole cell-based binding assay, displacement of 3H-DAMGO
# T1 construct: SH-SY5Y cells endogenously expressing μ- and δ-opioid receptors; endogenous in cells; host or cells: SH-SY5Y cells
# Description: Media was removed and cells were washed with PBS before pre-incubation in 300 μL of binding buffer. Binding studies were performed with 100 μL of appropriate concentrations of ^3H-labeled DAMGO (a selective μ-opioid receptor agonist) and 100 μL of competitor or blank in binding buffer at 37° C. for 60 min. Competition binding experiments were performed using […] of ^3H-labelled DAMGO in the absence or presence of increasing concentrations of unlabeled derivatised endomorphins or derivatised endomorphin analogs. A 1 μM excess of unlabelled DAMGO was used to determine non-specific binding. Following incubation, the cells were washed with PBS and recovered from culture plates using 500 μL of […] before transfer to scintillation vials. Liquid scintillation cocktail (Ultima Gold, Packard, Meriden, USA) was added to these vials for counting in a liquid scintillation analyser. Data are expressed as the mean±SEM of % specific binding of triplicate determinations performed on at least three independent plates of cells. Data were plotted using the one-site competition functions of the PRISM program (Graphpad Inc., San Diego, USA) (see FIGS. 1a, 1b and 7).
# [4] = In vivo biodistribution of 3H-labelled peptide, intravenous; set-up: species or system rat; conditions: rats, i.v.
# Description: FIG. 5(a)-(c) are graphical representations showing in vivo bio-distribution of 1 in rats. […] After 15, 30 and 60 minutes, 5 rats were sacrificed and the brain FIG. 5(a), liver FIG. 5(b) and blood FIG. 5(c) of each rat were removed following intravenous administration. The organs were subsequently homogenised in buffer and a sample removed and placed in tissue solubiliser for 3 days. After this time a small sample was removed and treated with bleach over night to remove any colour from the solution and the resulting sample dissolved in scintillation fluid and the radioactivity measured by liquid scintillation. […] The apparent increase in blood levels of the parent peptide after 60 minutes is likely due to the breakdown of the compound and release of the radiolabeled acetate into the blood stream.
# [5] = system: μ- and δ-opioid receptors; assay: Cell based assay of cAMP inhibition in forskolin treated SH-SY5Y cells; conditions: for Inhibit c-AMP (%): SH-SY5Y cell line, normalised to the % of cAMP inhibition seen by native endomorphin-1
# Description: SH-SY5Y cells endogenously expressing μ- and δ-opioid receptors were cultured (100 μl) in a 96 well-plate and incubated (usually overnight) until 80% confluent. Once cells were ready for assay, Endo-1, Endo-2 and derivatives/analogs were diluted in DMEM culture medium containing 30 μM forskolin. The diluted derivatised endomorphins or derivatised endomorphin analogs were then applied to separate wells for agonist studies and co-incubated for antagonist studies. Cells were incubated with derivatised endomorphins or derivatised endomorphin analogs at 37° C. for 30 minutes, medium was aspirated and cells were lysed using lysis buffer from a cAMP Biotrak EIA kit (Amersham, Buckinghamshire, UK). An anti-cAMP antibody was added to the lysate, and the mixture incubated at 4° C. for 2 hours followed by the addition of a cAMP peroxidase conjugate, and incubated at 4° C. for a further hour. A 3,3′5,5′-tetramethylbenzidine (TMB) substrate provided by the Biotrak EIA kit was then incubated with cell lysate for 1 hour and finally 1 […] was added to facilitate a colour change, which is proportional to the amount of cAMP captured. A cAMP standard curve from 0 to 3200 fmol was also generated concurrently. Plates were then read by a plate reader at 450 nm and compared back to the cAMP standard curve. All data are compared to the maximum cAMP response to forskolin and are represented as the mean+/−standard error of three experiments performed in triplicate. All data are plotted using PRISM program (GraphPad, San Diego, Calif.) (see FIGS. 2a and 2b).
# [6] = Enzymatic stability study in homogenized Caco-2 cells; type: in vitro ADME; conditions: human, pH 7.4; Caco-2 cell homogenate, 37° C., 100 μM
# Description: (§1) Approximately 1×10^5 cells/mL concentration of cells were seeded onto the 96 well plate. […] The media was changed every other day. 21-28 days old cells were used for the experiments. the media was removed from the wells and each well washed with 100 μL 0.2% EDTA solution followed by washing three times with Hanks' balanced salt solution (HBSS) containing 25 mM Hepes (pH 7.4). Finally, 100 μL of this buffer was placed in each well and the plate cooled in ice. The monolayer of cells in each well was then disrupted by 2×1 second pulses with a Sonics Vibracell ultrasonic processor set at an amplitude of 30. The cell debris was then removed by centrifugation of the plate at 2000 rpm for 5 min. 80 μL cell homogenate supernatant of each well was then transferred to a clean 96 well plate, and 20 μL of HBSS-Hepes was added. Three of the wells' contents were set aside and assayed for total protein content using the Lowry assay. The compounds to be tested were dissolved in HBSS-Hepes buffer to a concentration of 200 μM.
# (§2) This assay was performed at 37° C. […] The stability assay on each compound was conducted in triplicate and the concentrations averaged for each time point.
# [7] = system: homogenate of Caco-2 cells; assay: as above; type: in vitro ADME; conditions: Caco-2 cell line; graded by number of ♦ (up to 5), key not given
# Description: as §1, §2
# [8] = Blood plasma concentration after oral gavage; type: in vivo, rat; conditions: male rats
# Description: In another experiment, Lac-endo was fed via oral gavage to male rats and the concentration of the compound in blood plasma measured over time. Sprague-dawley rats (average wt 300 g) were gavaged with 500 μL of a 20 mM Lac-endo or Endomorphin solution in water. Blood samples taken from the tail vein after 30, 60 and 90 min. The blood was centrifuged to remove red blood cells, and in a 100 μL sample of plasma was added to 300 μL of acetonitrile to precipitate proteins. The suspension was centrifuged a second time and the supernatant analysed by LC-MS.
# [9] = Plasma stability assay; type: in vitro ADME; conditions: male, human, plasma at 37° C.
# Description: To measure the enzymatic stability of endomorphin-1 analogs in plasma, blood was taken from a healthy volunteer and the blood was centrifuged at 1700 rpm for 30 minutes to remove blood cells. The plasma was placed into a water bath heated at 37° C. and Endomorphin-1 and analog was added to give final concentrations of 0.7 mg/mL. Samples were incubated for varying time periods between 0 and 180 minutes. 50 μL of sample was taken at each time-point and 75 μL of acetonitrile was added to quench any enzyme activity. The samples were then placed on ice and upon completion of the assay, all samples were centrifuged at 9000 rpm for 3 minutes to remove all precipitated plasma proteins. The amount of intact peptide remaining in the supernatent of each sample was determined using RP HPLC by measuring the area under the curve of the peak at the appropriate retention time compared to a standard curve of concentration for each peptide (see FIG. 8).
# T1 sequence (P35372 whole entry): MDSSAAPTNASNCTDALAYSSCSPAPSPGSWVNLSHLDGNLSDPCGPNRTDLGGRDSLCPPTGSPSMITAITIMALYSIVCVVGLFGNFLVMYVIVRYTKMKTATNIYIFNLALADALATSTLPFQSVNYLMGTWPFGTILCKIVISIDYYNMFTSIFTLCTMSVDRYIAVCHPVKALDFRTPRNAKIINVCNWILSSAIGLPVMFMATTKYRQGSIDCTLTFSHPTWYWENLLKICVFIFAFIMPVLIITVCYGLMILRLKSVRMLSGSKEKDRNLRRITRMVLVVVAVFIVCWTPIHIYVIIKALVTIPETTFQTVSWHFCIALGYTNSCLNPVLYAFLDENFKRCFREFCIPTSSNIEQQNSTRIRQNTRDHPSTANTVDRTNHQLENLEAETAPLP
compound,measurement,setting,value
CCCCCCC(N)C(=O)N[C@@H](Cc1ccc(O)cc1)C(=O)N1CCC[C@H]1C(=O)N[C@@H](Cc1c[nH]c2ccccc12)C(=O)N[C@@H](Cc1ccccc1)C(N)=O (stereo partly shown) [Compound 1] (H-[ξAoc(2)]YPWF-NH2),"apparent permeability (Papp), in words","[1]; Caco-2 cell monolayers, compared to parent peptide",significantly improved apparent permeability compared to the parent peptide
same,"delivery to the brain, in words",[2],evidence of delivery of the peptide to the brain
same,increase in serum levels compared to the native peptide,[2]; over the time of the experiment,6 fold
same,Ki,[3],2.45 nM
same,"Ki / binding affinity, in words","[3]; displacement of 3H-DAMGO, FIG. 1",low nanomolar range
same,"accumulation in the liver, in words",[4],accumulate less in the liver than the parent peptide
same,label appearing in the brain,[4]; after 15 minutes,> 10%
same,Inhibit c-AMP (%),[5],97%
same,half-life,[6],25.5 min
NC(=O)[C@H]1O[C@@H](NC(=O)[C@H](Cc2ccccc2)NC(=O)[C@H](Cc2c[nH]c3ccccc23)NC(=O)[C@@H]2CCCN2C(=O)[C@@H](N)Cc2ccc(O)cc2)[C@H](O)[C@@H](O)[C@@H]1O [Compound 18],Permeability,"[1]; Caco-2 cell line, graded by number of ♦ (up to 5), key not given",♦
same,Enzymatic stability 2 h,[7],♦
NC(=O)[C@H](Cc1ccccc1)NC(=O)[C@H](Cc1c[nH]c2ccccc12)NC(=O)[C@@H]1CCCN1C(=O)[C@H](Cc1ccc(O)cc1)NC(=O)CCC(=O)N[C@@H]1O[C@H](CO)[C@@H](O[C@@H]2O[C@H](CO)[C@H](O)[C@H](O)[C@H]2O)[C@H](O)[C@H]1O [Compound 12],absorption of Lac-endo in presence of galactose,"[1]; Caco-2 monolayers, 20 mM galactose",some inhibition of absorption but less than lactose
same,absorption of Lac-endo in presence of glucose,"[1]; Caco-2 monolayers, 20 mM glucose",doesn't inhibit the absorption
same,absorption of Lac-endo in presence of lactose,"[1]; Caco-2 monolayers, 20 mM lactose",severely inhibits the absorption
same,Tmax,"[8]; Sprague-Dawley, rat, plasma, 10 µmol/rat, read-out: time of highest recorded concentration in blood (converted)",60 min
same,"absorption across the GI tract, in words",[8]; 500 μL of 20 mM solution,significant absorption of the compound across the GI tract
"Cc1cc(O)cc(C)c1C[C@H](N)C(=O)N1CCC[C@H]1C(=O)N[C@@H](Cc1c[nH]c2ccccc12)C(=O)N[C@@H](Cc1ccccc1)C(N)=O [(Dmt^1)Endo, reference compound]",Ki,[3],0.058 nM
same,half-life at 0.7 mg/mL,[9],4.18 min
same,IC50,[5]; Efficacy SH-SY5Y cell line,0.156 nM
same,Inhibit c-AMP (%),[5],160%
same,half-life at 100 μM,[6],8.98 min
same,Enzymatic stability 2 h,[7],♦
